From US20210236442A1, “METHODS FOR DELAYING OCCURRENCE OF NEW-ONSET TYPE 2 DIABETES AND FOR SLOWING PROGRESSION OF AND TREATING TYPE 2 DIABETES” (Dalcor Pharma UK Ltd., Leatherhead, Zug Branch, priority 2018, published 2021)

How the values were obtained:
Format in all cases: in vivo, human
[1] = system: uncontrolled diabetic patients of the dal-OUTCOMES trial; assay: Effect of dalcetrapib on whole-blood HbA1c in uncontrolled diabetics
Method: The effect of dalcetrapib in uncontrolled diabetics defined once as HbA1c>7% at baseline or once as >7.5% at baseline was retrospectively assessed in patients of the dal-OUTCOMES trial. The descriptive statistics and analyses were performed using SAS 9.4 software. Two populations of uncontrolled diabetics at baseline were defined: patients having a whole-blood HbA1c level of >7 (n=437) and patients having a whole-blood HbA1c level of >7.5 (n=280).

[2] = system: patients enrolled in the dal-OUTCOMES trial; assay: Repeated measures mixed model regression of treatment arm for fasting plasma glucose and whole-blood HbA1c per genotype and diabetes status; details: all rs1967309 genotypes, diabetic and non-diabetic, with and without age and sex; except AG diabetic patients
Description: The effect of ADCY9 rs1967309 genotypes on patient HbA1C and glucose levels was retrospectively assessed in patients enrolled in the dal-OUTCOMES trial.
Inclusion Criteria: Patients 45 years of age or older who provided written informed consent were eligible to participate if they had been hospitalized for an acute coronary syndrome characterized by elevated cardiac biomarkers, with symptoms of acute myocardial ischemia, ischemic electrocardiographic abnormalities that were new or presumed to be new, or loss of viable myocardium on imaging. Patients without elevated cardiac biomarkers were eligible to participate if symptoms of acute myocardial ischemia were accompanied by electrocardiographic changes that were new or presumed to be new and by additional evidence of obstructive coronary disease. […] However, no specific statin agent or dose was specified, and patients were not excluded if their LDL cholesterol level remained above 100 mg per deciliter. There were no exclusions on the basis of patients' HDL cholesterol level. […] The patients began a single-blind placebo-based run-in period of approximately 4 to 6 weeks to allow for patients to stabilize and for completion of any planned revascularization procedures. […]

[3] = system: patients of the dal-OUTCOMES trial; assay: GLM of dalcetrapib treatment arm for whole-blood HbA1c at 6, 12 and 24 months
Method: The effect of dalcetrapib on whole-blood HbA1c levels irrespective of genotype and the impact of dalcetrapib on risk of new onset diabetes were retrospectively assessed in patients of the dal-OUTCOMES trial. The descriptive statistics and analyses were performed using SAS 9.4 software. Diabetes at baseline was defined based on at least one of the following patient criteria: (1) diagnosis of diabetics at baseline in the dal-OUTCOMES trial; (2) whole-blood HbA1c level>=6.5% at baseline; (3) fasting glucose level>=7.0 mmol/L at baseline; and (4) use of diabetes medication at or before baseline. GLM results of the dalcetrapib treatment arm for whole-blood HbA1c at 6,12, and 24 months (“M06”, “M12” and “M24”, respectively) were obtained.

In the case of `CCC(CC)CC1(C(=O)Nc2ccccc2SC(=O)C(C)C)CCCCC1` [dalcetrapib], the “association of treatment arm (dalcetrapib versus placebo) with whole-blood HbA1c at M06” value ([1]; HbA1c >7 at baseline, genotype rs1967309/AA, without adjustment for covariates, significance level 5%) was “associated with a decrease in whole-blood HbA1c”, the “repeated measures analysis, natural logarithm of HbA1C at 6, 12 and 24 months” value ([1]; uncontrolled diabetic patients, mixed regression models) was “confirmed by repeated measures analysis” and the “mean ln(HbA1c) in the dalcetrapib treatment arm” value ([1]; uncontrolled diabetics, versus placebo arm) was “lower than in the placebo arm”. The “significance of dalcetrapib treatment arm for outcome HbA1c” value [2] was “significant”, the “β dalcetrapib, Ln(HbA1c)” value ([3]; All, HBA1C_M06, Table 12, adjustment not stated) was −0.0137 and the “β dalcetrapib, Ln(HbA1c)” value ([3]; All, HBA1C_M06, first block, adjusted for baseline HbA1c) was −0.0143. For the same molecule, the “β dalcetrapib, Ln(HbA1c)” value ([3]; All, HBA1C_M12, Table 12, adjustment not stated) was −0.0152, the “β dalcetrapib, Ln(HbA1c)” value ([3]; All, HBA1C_M12, first block, adjusted for baseline HbA1c) was −0.0160 and the “β dalcetrapib, Ln(HbA1c)” value ([3]; All, HBA1C_M24, Table 12, adjustment not stated) was −0.0170. The “β dalcetrapib, Ln(HbA1c)” value ([3]; All, HBA1C_M24, first block, adjusted for baseline HbA1c) was −0.0176, the “association of dalcetrapib treatment arm with whole-blood HbA1c levels” value ([3]; M06, M12, M24, all patients combined and each rs1967309 genotype, with and without age and sex) was “associated with decrease in whole-blood HbA1c levels” and the “β dalcetrapib, Ln(HbA1c)” value ([3]; genotype = AA, HBA1C_M06, Table 12, adjustment not stated) was −0.0192. The “β dalcetrapib, Ln(HbA1c)” value ([3]; genotype = AA, HBA1C_M06, first block, adjusted for baseline HbA1c) was −0.0196, the “β dalcetrapib, Ln(HbA1c)” value ([3]; genotype = AA, HBA1C_M12, Table 12, adjustment not stated) was −0.0112 and the “β dalcetrapib, Ln(HbA1c)” value ([3]; genotype = AA, HBA1C_M12, first block, adjusted for baseline HbA1c) was −0.0116. The “β dalcetrapib, Ln(HbA1c)” value ([3]; genotype = AA, HBA1C_M24, Table 12, adjustment not stated) was −0.0172, the “β dalcetrapib, Ln(HbA1c)” value ([3]; genotype = AA, HBA1C_M24, first block, adjusted for baseline HbA1c) was −0.0171 and the “β dalcetrapib, Ln(HbA1c)” value ([3]; genotype = AG, HBA1C_M06, Table 12, adjustment not stated) was −0.0113. The “β dalcetrapib, Ln(HbA1c)” value ([3]; genotype = AG, HBA1C_M06, first block, adjusted for baseline HbA1c) was −0.0123, the “β dalcetrapib, Ln(HbA1c)” value ([3]; genotype = AG, HBA1C_M12, Table 12, adjustment not stated) was −0.0143 and the “β dalcetrapib, Ln(HbA1c)” value ([3]; genotype = AG, HBA1C_M12, first block, adjusted for baseline HbA1c) was −0.0156. For the same molecule, the “β dalcetrapib, Ln(HbA1c)” value ([3]; genotype = AG, HBA1C_M24, Table 12, adjustment not stated) was −0.0139, the “β dalcetrapib, Ln(HbA1c)” value ([3]; genotype = AG, HBA1C_M24, first block, adjusted for baseline HbA1c) was −0.0153 and the “β dalcetrapib, Ln(HbA1c)” value ([3]; genotype = GG, HBA1C_M06, Table 12, adjustment not stated) was −0.0145. For the same molecule, the “β dalcetrapib, Ln(HbA1c)” value ([3]; genotype = GG, HBA1C_M06, first block, adjusted for baseline HbA1c) was −0.0145, the “β dalcetrapib, Ln(HbA1c)” value ([3]; genotype = GG, HBA1C_M12, Table 12, adjustment not stated) was −0.0185 and the “β dalcetrapib, Ln(HbA1c)” value ([3]; genotype = GG, HBA1C_M12, first block, adjusted for baseline HbA1c) was −0.0186. The “β dalcetrapib, Ln(HbA1c)” value ([3]; genotype = GG, HBA1C_M24, Table 12, adjustment not stated) was −0.0214, the “β dalcetrapib, Ln(HbA1c)” value ([3]; genotype = GG, HBA1C_M24, first block, adjusted for baseline HbA1c) was −0.0210 and the “β dalcetrapib, Ln(HbA1c)” value ([3]; genotype_group = AA + AG, HBA1C_M06, Table 12, adjustment not stated) was −0.0133. The “β dalcetrapib, Ln(HbA1c)” value ([3]; genotype_group = AA + AG, HBA1C_M06, first block, adjusted for baseline HbA1c) was −0.0141, the “β dalcetrapib, Ln(HbA1c)” value ([3]; genotype_group = AA + AG, HBA1C_M12, Table 12, adjustment not stated) was −0.0135 and the “β dalcetrapib, Ln(HbA1c)” value ([3]; genotype_group = AA + AG, HBA1C_M12, first block, adjusted for baseline HbA1c) was −0.0146. The “β dalcetrapib, Ln(HbA1c)” value ([3]; genotype_group = AA + AG, HBA1C_M24, Table 12, adjustment not stated) was −0.0147, the “β dalcetrapib, Ln(HbA1c)” value ([3]; genotype_group = AA + AG, HBA1C_M24, first block, adjusted for baseline HbA1c) was −0.0157 and the “β dalcetrapib, Ln(HbA1c)” value ([3]; genotype_group = GG, HBA1C_M06, Table 12, adjustment not stated) was −0.0145. The “β dalcetrapib, Ln(HbA1c)” value ([3]; genotype_group = GG, HBA1C_M06, first block, adjusted for baseline HbA1c) was −0.0145, the “β dalcetrapib, Ln(HbA1c)” value ([3]; genotype_group = GG, HBA1C_M12, Table 12, adjustment not stated) was −0.0185 and the “β dalcetrapib, Ln(HbA1c)” value ([3]; genotype_group = GG, HBA1C_M12, first block, adjusted for baseline HbA1c) was −0.0186. For the same molecule, the “β dalcetrapib, Ln(HbA1c)” value ([3]; genotype_group = GG, HBA1C_M24, Table 12, adjustment not stated) was −0.0214, the “β dalcetrapib, Ln(HbA1c)” value ([3]; genotype_group = GG, HBA1C_M24, first block, adjusted for baseline HbA1c) was −0.0210 and the “mean ln(HbA1c) in the dalcetrapib treatment arm” value ([3]; versus placebo arm, adjusting for baseline HbA1c) was “lower than in the placebo arm”.
